Test: pKa (acid dissociation constant) determined by neutralization titration
Format: physicochemical
Conditions: acid dissociation constant at 25°C in water

For `CO` [Base B-2, KOMe], which pKa is on record?
Its pKa is 16.
